Experimental data: PubChem BioAssay AID1963445 (Molecular Pharmacology Branch, DTP, NCI, 2024)
pIC50: −log10 of the molar value.

Tested on: MCF7 complex spheroid growth, % test/control
Assay: Anticancer human tumor MCF7 cell line growth inhibition [Asc];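 further: spheroids exposed to compounds for 7 days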;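 on viability, T/C: 100% = DMSO vehicle control wells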
Details: for pIC50: curve of first compound; for viability, T/C: stronger effect = lower value; active means viability on the fitted dose curve at most 10% of control; inactive means the rest
Method in brief: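 Complex spheroids combining tumor cells with HUVEC endothelial cells and human MSCs, at 37 degrees C, 5% CO2; agents tested alone or combined, half-log dilutions from at or near clinical Cmax, or 10 microM if Cmax unknown.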

Cc1nc(N2CCC3(CC2)COC(C)C3N)c(CO)nc1Sc1ccnc(N)c1Cl (configuration not stated) + Cc1c(S(C)(=O)=O)c(-c2cc(F)cc(N3CCN(c4ccc(NS(=O)(=O)c5ccc(NC(CCN6CCC(C(=O)OCCCP(=O)(O)O)CC6)CSc6ccccc6)c(S(=O)(=O)C(F)(F)F)c5)cc4)CC3)c2)c(-c2ccc(Cl)cc2)n1C(C)C
inactive: viability, T/C (second compound 0.0316 µM, first compound 0.00949 µM) 91.3% | viability, T/C (second compound 0.0316 µM, first compound 0.03 µM) 92.1% | viability, T/C (second compound 0.0316 µM, first compound 0.0949 µM) 90% | viability, T/C (second compound 0.0316 µM, first compound 0.3 µM) 88.8% | viability, T/C (second compound 0.0316 µM, first compound 0.949 µM) 39.1% | viability, T/C (second compound 0.0316 µM, first compound 3 µM) 14.7% | viability, T/C (second compound 0.1 µM, first compound 0.00949 µM) 90.6% | viability, T/C (second compound 0.1 µM, first compound 0.03 µM) 79.7% | viability, T/C (second compound 0.1 µM, first compound 0.0949 µM) 73.7% | viability, T/C (second compound 0.1 µM, first compound 0.3 µM) 80% | viability, T/C (second compound 0.1 µM, first compound 0.949 µM) 44.2% | viability, T/C (second compound 0.1 µM, first compound 3 µM) 14.9% | viability, T/C (second compound 0.316 µM, first compound 0.00949 µM) 98.3% | viability, T/C (second compound 0.316 µM, first compound 0.03 µM) 84.2% | viability, T/C (second compound 0.316 µM, first compound 0.0949 µM) 75.2% | viability, T/C (second compound 0.316 µM, first compound 0.3 µM) 72.8% | viability, T/C (second compound 0.316 µM, first compound 0.949 µM) 19.7% | viability, T/C (second compound 0.316 µM, first compound 3 µM) 15.5% | viability, T/C (second compound 1 µM, first compound 0.00949 µM) 80.5% | viability, T/C (second compound 1 µM, first compound 0.03 µM) 84.6% | viability, T/C (second compound 1 µM, first compound 0.0949 µM) 85.7% | viability, T/C (second compound 1 µM, first compound 0.3 µM) 81.2% | viability, T/C (second compound 1 µM, first compound 0.949 µM) 18.9% | viability, T/C (second compound 1 µM, first compound 3 µM) 15.3% | viability, T/C (second compound 3.16 µM, first compound 0.00949 µM) 98.3% | viability, T/C (second compound 3.16 µM, first compound 0.03 µM) 88.4% | viability, T/C (second compound 3.16 µM, first compound 0.0949 µM) 89.5% | viability, T/C (second compound 3.16 µM, first compound 0.3 µM) 80.6% | viability, T/C (second compound 3.16 µM, first compound 0.949 µM) 36.6% | viability, T/C (second compound 3.16 µM, first compound 3 µM) 20.5% | viability, T/C (second compound 10 µM, first compound 0.00949 µM) 247% | viability, T/C (second compound 10 µM, first compound 0.03 µM) 221% | viability, T/C (second compound 10 µM, first compound 0.0949 µM) 202% | viability, T/C (second compound 10 µM, first compound 0.3 µM) 176% | viability, T/C (second compound 10 µM, first compound 0.949 µM) 26% | viability, T/C (second compound 10 µM, first compound 3 µM) 26%
6.18: pIC50 (second compound 3.16 µM)
6.13: pIC50 (second compound 0.0316 µM)
6.10: pIC50 (second compound 0.1 µM) | pIC50 (second compound 10 µM)
6.27: pIC50 (second compound 1 µM)
6.31: pIC50 (second compound 0.316 µM)
